In series [1] the target is T1, Extracellular calcium-sensing receptor (Rattus norvegicus) (UniProt P48442).
T1 sequence (whole entry): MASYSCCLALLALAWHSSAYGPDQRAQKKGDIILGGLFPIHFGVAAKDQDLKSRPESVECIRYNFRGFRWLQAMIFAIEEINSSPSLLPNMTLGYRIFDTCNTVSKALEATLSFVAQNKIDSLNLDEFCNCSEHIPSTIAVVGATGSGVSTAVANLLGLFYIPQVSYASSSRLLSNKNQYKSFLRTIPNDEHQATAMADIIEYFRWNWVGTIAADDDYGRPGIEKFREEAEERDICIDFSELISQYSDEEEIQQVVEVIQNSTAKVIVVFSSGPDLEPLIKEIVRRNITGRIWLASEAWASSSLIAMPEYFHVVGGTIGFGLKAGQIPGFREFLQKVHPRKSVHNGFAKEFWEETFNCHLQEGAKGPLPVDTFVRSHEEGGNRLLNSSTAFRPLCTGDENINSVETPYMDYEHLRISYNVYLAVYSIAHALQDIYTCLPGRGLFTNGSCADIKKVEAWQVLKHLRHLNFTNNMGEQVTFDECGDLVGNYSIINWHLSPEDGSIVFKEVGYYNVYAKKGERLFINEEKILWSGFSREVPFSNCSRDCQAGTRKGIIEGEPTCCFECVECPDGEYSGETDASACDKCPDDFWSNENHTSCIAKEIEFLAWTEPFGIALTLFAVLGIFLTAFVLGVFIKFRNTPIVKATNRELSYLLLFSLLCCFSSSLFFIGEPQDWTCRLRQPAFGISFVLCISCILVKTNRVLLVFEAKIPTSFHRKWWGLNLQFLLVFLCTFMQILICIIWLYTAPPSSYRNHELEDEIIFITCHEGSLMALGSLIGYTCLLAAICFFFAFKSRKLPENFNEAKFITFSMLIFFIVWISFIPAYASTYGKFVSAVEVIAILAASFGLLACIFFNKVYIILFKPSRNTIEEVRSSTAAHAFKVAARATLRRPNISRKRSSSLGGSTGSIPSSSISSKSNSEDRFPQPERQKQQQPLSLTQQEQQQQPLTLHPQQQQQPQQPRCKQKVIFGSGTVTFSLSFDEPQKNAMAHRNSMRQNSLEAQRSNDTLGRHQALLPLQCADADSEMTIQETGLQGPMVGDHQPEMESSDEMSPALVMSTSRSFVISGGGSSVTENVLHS
Kind of series: Agonist activity at rat brain CaSR expressed in CHO cells assessed as inositol phosphate production at 10 uM in presence of 3 mM extracellular Ca2+ by IP-one assay. Type of series: functional, cell-based.

Series [2] addresses T1, Extracellular calcium-sensing receptor (Rattus norvegicus). Kind of series: Agonist activity at rat brain CaSR expressed in CHO cells assessed as inositol phosphate production at 3 uM in presence of 3 mM extracellular Ca2+ by IP-one assay. Type of series: functional, cell-based.
Series [3] has the same target. The series is described as follows: Agonist activity at rat brain CaSR expressed in CHO cells assessed as inositol phosphate production at 10 uM in presence of 2 mM extracellular Ca2+ by IP-one assay. The series is classed as functional, cell-based.
The target in series [4] is T2, Extracellular calcium-sensing receptor (Rattus norvegicus, UniProt P48442).
T2 sequence (P48442 whole entry): T1 sequence (whole entry)
The series is described as follows: Agonist activity at rat brain CaSR expressed in CHO cells assessed as inositol phosphate production in presence of 3 mM extracellular Ca2+ by IP-one assay. The series is classed as functional, cell-based.

The target in series [5] is T3, G-protein coupled receptor family C group 6 member A (Mus musculus) (UniProt Q8K4Z6).
T3 sequence (whole entry): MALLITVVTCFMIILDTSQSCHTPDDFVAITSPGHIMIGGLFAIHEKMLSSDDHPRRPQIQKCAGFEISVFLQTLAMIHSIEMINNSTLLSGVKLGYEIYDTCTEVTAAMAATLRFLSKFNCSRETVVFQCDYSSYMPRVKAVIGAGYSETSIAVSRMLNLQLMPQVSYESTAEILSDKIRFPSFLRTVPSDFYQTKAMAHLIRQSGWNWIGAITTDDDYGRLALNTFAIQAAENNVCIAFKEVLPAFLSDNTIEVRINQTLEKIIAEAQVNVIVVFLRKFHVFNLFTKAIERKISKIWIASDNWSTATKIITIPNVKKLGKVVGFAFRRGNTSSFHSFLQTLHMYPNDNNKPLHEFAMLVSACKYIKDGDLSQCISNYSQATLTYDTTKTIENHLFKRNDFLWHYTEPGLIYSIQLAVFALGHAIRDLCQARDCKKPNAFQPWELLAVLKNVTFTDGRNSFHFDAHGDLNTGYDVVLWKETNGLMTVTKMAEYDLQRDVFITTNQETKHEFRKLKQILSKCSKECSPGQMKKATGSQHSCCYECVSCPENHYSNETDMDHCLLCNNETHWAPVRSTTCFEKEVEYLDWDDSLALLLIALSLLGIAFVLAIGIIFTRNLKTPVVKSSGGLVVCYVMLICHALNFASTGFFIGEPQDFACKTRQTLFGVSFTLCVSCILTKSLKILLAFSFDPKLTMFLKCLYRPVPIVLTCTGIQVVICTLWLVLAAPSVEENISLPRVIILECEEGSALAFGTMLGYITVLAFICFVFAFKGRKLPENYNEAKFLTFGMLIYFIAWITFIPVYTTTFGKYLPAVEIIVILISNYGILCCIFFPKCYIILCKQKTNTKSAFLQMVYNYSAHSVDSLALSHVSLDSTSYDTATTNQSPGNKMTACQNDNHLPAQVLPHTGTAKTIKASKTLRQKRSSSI
Kind of series: Inhibition of L-Ornithine-stimulated wild type mouse GPRC6A expressed in HEK293 cells coexpressing GalphaqG66D assessed as increase in [3H] inositol phosphate production at 10 uM incubated for 30 mins in presence of 2 mM extracellular Ca2+. The series is classed as functional, cell-based.

The test system of a further series is HEK293. The series is described as follows: Effect on inositol phosphate production in HEK293 cells in absence of L-Ornithine. The following applies: human. Type of series: ADME, cell-based.
Series [6] addresses T1, Extracellular calcium-sensing receptor (Rattus norvegicus). The series is described as follows: Agonist activity at rat brain CaSR expressed in CHO cells assessed as inositol phosphate production at 3 uM in presence of 2 mM extracellular Ca2+ by IP-one assay. The series is classed as functional, cell-based.
The target is the same in series [7]. The series is described as follows: Agonist activity at rat brain CaSR expressed in CHO cells assessed as inositol phosphate production at 0.1 uM in presence of 3 mM extracellular Ca2+ by IP-one assay. Type of series: functional, cell-based.

Activity calls are given as the source filed them. The calls are words filed in the database; no cut-off is given here.

As a reminder, the EC50 is the midpoint of the concentration-response curve. By inhibition is commonly meant the drop in the measured response relative to a control, in per cent.

As for `CC(NCc1cc2ccccc2[nH]1)c1ccc(-c2ccccc2)cc1` (racemic), the values for the Activity in series [1] and in series [2] were 1% and 2%, respectively.

Turning to `CC(NCc1cc2ccccc2[nH]1)c1ccccc1O` (racemic), the Activity in series [1] and in series [2] was 1% in each case.

With `C[C@@H](NC1CCCc2c1[nH]c1ccccc21)c1cccc2ccccc12` (mixture of isomers), in series [1], the Activity was determined as 67%.

As for `C[C@@H](NCc1cc2cc(OCc3ccccc3)ccc2[nH]1)c1cccc2ccccc12`, the Activity in series [2] amounted to 23%.

Consider `Cc1ccc([C@@H](C)NCc2cc3ccccc3[nH]2)cc1`, for which, in series [3], the Activity was 29%.

As for `C[C@@H](NCc1cc2cc([N+](=O)[O-])ccc2[nH]1)c1cccc2ccccc12`, the Activity in series [2] was 30%.

Turning to `C[C@@H](NCc1cc2cc(O)ccc2[nH]1)c1cccc2ccccc12`, the Activity in series [2] was determined as 92%. Besides, the EC50 in series [4] is 0.112 µM.

With `CC(NCc1cc2ccccc2[nH]1)c1ccc(F)c2ccccc12` (racemic), the Activity was 89% in series [2] and “Non-toxic” in the series on HEK293. Further, the EC50 in series [4] amounted to 0.131 µM. Besides, the inhibition entry in series [5] was “inactive”.

On to `C[C@@H](NCc1cc2ccccc2[nH]1)c1ccc(Br)cc1`, for which, in series [2], the Activity came out at 26%.

For the molecule `COc1cccc2[nH]c(CN[C@H](C)c3cccc4ccccc34)cc12`, the Activity in series [3] amounted to 95%; in series [6], 63%.

For `C[C@@H](NCc1cc2cc(F)ccc2[nH]1)c1cccc2ccccc12`, the values for the Activity in series [3] and in series [6] were 74% and 30%, respectively.

In the case of `COc1cccc([C@@H](C)NCc2cc3ccccc3[nH]2)c1`, the Activity in series [3] was 54%.

With `C[C@@H](NCc1cc2cccc(O)c2[nH]1)c1cccc2ccccc12`, the Activity in series [1] turned out to be 83%; in series [2], 55%.

As for `C[C@@H](NCc1cc2ccccc2[nH]1)c1ccccc1`, the Activity in series [3] stood at 34%.

For the molecule `C[C@@H](NCc1cc2cc(S(C)(=O)=O)ccc2[nH]1)c1cccc2ccccc12`, the Activity in series [2] is 54%.

On to `C[C@@H](NCc1[nH]c2ccccc2c1-c1ccccc1)c1cccc2ccccc12`, for which, in series [1], the Activity was found to be 55%.

Take `CC(NCc1cc2ccccc2[nH]1)c1cccc(Br)c1` (racemic): the Activity in series [2] came out at 49%.

On to `C[C@@H](NCc1cc2c(-c3ccccc3)cccc2[nH]1)c1cccc2ccccc12`, for which the Activity in series [1] was 102%; in series [2], 85%; in the series with HEK293, “Non-toxic”. In addition, the EC50 in series [4] was found to be 0.136 µM. Also, the inhibition result in series [5] is “inactive”.

On to `COc1cc(OC)c2cc(CN[C@H](C)c3cccc4ccccc34)[nH]c2c1`, for which the Activity stood at 94% in series [3] and 53% in series [6].

Consider `C[C@@H](NCc1cc2cccc([N+](=O)[O-])c2[nH]1)c1cccc2ccccc12`, for which the Activity is 102% in series [2], 70% in series [7] and “Non-toxic” with HEK293. Further, the concentration giving a half-maximal response (EC50) in series [4] turned out to be 0.02 µM. Besides, in series [5], the inhibition result is “inactive”.

Turning to `Cc1ccc2[nH]c(CN[C@H](C)c3cccc4ccccc34)cc2c1`, the Activity in series [3] came out at 69%; in series [6], 1%.

`COc1cc2cc(CN[C@H](C)c3cccc4ccccc34)[nH]c2c(OC)c1OC`: the Activity in series [2] came out at 40%.

Take `C[C@@H](NCc1cc2ccccc2[nH]1)c1ccc(F)cc1`: in series [2], the Activity was found to be 30%.

In the case of `C[C@@H](NCc1cc2ccccc2[nH]1)c1cccc2ccccc12` [CALINDOL], the Activity in series [1] stood at 100%; in series [2], 83%; in series [3] it was 103%; in series [6], 73%. Moreover, in series [4], the EC50 was 0.132 µM. Besides, the inhibition in series [5] is 35%.

For the molecule `COc1ccc2cc(CN[C@H](C)c3cccc4ccccc34)[nH]c2c1`, the Activity was determined as 76% in series [3] and 33% in series [6].

As to `C[C@@H](NCc1cc2cccc(-c3ccccc3)c2[nH]1)c1cccc2ccccc12`, the Activity in series [2] turned out to be 79%.

Turning to `C[C@@H](NCc1cc2c(O)cccc2[nH]1)c1cccc2ccccc12`, the Activity in series [2] worked out at 88%. Moreover, the half-maximal effective concentration (EC50) in series [4] was 0.102 µM.

With `C[C@@H](NCc1[nH]c2ccccc2c1Br)c1cccc2ccccc12`, the Activity in series [2] was 21%.

Consider `COc1ccc([C@@H](C)NCc2cc3ccccc3[nH]2)cc1`, for which, in series [3], the Activity stood at 27%.

The values are drawn from ChEMBL document CHEMBL3751687, “Design and synthesis of calindol derivatives as potent and selective calcium sensing receptor agonists” (Bioorg Med Chem, 2016).
